For one assay, the target named is T1, human TLR7 (Homo sapiens, UniProt Q9NYK1).
T1 construct: host or cells: HEK-Blue hTLR7 (HEK293-derived reporter cells)
T1 sequence (Q9NYK1 27-1049): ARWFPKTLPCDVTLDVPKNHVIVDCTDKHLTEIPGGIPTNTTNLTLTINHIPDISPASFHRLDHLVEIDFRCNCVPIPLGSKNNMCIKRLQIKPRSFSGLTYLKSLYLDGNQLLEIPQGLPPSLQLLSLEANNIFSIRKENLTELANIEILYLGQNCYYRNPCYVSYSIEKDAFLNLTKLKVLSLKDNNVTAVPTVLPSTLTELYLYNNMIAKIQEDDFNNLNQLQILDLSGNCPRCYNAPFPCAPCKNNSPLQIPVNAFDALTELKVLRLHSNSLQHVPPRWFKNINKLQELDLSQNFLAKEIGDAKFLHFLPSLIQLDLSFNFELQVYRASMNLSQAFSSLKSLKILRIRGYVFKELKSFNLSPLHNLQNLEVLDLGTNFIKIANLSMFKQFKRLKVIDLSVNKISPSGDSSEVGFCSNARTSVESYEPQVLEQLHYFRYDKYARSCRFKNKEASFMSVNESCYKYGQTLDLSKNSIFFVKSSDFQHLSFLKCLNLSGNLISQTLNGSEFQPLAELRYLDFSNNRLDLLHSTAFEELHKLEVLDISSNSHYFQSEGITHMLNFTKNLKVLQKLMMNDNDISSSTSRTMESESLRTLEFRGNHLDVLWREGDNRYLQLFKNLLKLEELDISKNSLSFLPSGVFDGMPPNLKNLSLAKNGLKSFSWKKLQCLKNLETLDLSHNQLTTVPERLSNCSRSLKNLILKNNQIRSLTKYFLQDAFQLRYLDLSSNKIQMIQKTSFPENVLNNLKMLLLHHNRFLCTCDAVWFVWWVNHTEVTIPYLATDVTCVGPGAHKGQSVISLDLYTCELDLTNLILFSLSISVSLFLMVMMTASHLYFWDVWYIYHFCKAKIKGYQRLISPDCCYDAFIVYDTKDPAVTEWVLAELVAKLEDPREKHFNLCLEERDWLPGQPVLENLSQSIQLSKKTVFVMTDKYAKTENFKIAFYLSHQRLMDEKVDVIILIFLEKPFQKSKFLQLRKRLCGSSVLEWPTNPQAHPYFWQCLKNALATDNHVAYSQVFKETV
The assay can be described thus: HEK-Blue hTLR7 SEAP reporter gene agonist assay. In kind it is cell-based. The settings on record: HEK-Blue hTLR7 cells, 16 to 22 hours incubation. In outline: (§1)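 HEK-Blue cells stably expressing human TLR7 or TLR8 carry a SEAP reporter driven by a minimal IFN-β promoter fused to 5×NF-κB and AP-1 sites. Compounds at […] final, 16 to 22 h. SEAP in the medium measured with Quanti-blue at OD650, and EC50 derived.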

In the next assay the target is T2, human TLR8 (Homo sapiens, UniProt Q9NR97).
T2 construct: host or cells: HEK-Blue hTLR8 (HEK293-derived reporter cells)
T2 sequence (Q9NR97 27-1041): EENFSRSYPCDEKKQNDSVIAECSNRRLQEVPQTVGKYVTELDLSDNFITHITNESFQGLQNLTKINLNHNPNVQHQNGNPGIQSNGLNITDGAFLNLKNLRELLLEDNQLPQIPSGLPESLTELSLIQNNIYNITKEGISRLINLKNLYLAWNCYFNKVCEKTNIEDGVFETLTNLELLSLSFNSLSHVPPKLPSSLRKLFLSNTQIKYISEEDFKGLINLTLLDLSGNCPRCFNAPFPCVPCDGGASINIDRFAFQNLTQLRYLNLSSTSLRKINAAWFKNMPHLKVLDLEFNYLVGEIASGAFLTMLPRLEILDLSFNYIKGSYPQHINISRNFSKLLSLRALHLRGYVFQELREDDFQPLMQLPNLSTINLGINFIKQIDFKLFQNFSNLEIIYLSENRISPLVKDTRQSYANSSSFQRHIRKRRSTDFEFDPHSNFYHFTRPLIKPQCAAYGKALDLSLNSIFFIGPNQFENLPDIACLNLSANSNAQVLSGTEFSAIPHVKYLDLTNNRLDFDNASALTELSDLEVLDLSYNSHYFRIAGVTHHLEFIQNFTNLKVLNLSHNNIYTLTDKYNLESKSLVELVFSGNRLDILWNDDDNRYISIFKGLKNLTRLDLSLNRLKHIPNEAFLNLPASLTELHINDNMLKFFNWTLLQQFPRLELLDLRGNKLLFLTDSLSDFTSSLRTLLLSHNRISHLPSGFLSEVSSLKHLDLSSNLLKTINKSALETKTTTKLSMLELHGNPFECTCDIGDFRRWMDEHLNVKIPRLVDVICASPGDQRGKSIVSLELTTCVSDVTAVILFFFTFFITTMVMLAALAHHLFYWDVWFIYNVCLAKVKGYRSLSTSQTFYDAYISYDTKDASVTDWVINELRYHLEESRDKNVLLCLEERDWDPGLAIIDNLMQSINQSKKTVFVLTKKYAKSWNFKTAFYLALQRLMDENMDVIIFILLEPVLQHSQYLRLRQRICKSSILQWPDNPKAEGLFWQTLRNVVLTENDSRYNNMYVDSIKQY
Briefly: HEK-Blue hTLR8 SEAP reporter gene agonist assay. The class given is cell-based. The settings on record: HEK-Blue hTLR8 cells, 16 to 22 hours incubation. In outline: as §1

As for `CCCCNc1nc(N)nc2ccn(Cc3ccc(C(=O)N4CCNCC4)cc3OC)c(=O)c12` [Compound I-72, 2-amino-4-(butylamino)-6-(2-methoxy-4-(piperazine-1-carbonyl)benzyl)pyrido[4,3-d]pyrimidin-5(6H1)-one], the EC50 is 64 nM on human TLR7 and 81 nM at human TLR8.
The corresponding values for `CCC[C@@H](C)Nc1nc(N)nc2ccn(Cc3ccc(CN4CCN(CCCO)CC4)cc3OC)c(=O)c12` [Compound I-216, (R)-2-amino-6-(4-((4-(3-hydroxypropyl)piperazin-1-yl)methyl)-2-methoxybenzyl)-4-(pentan-2-ylamino)pyrido[4,3-d]pyrimidin-5(6H)-one] are 63 nM and 40 nM.
The matching figures for `CCCCNc1nc(N)nc2ccn(Cc3ccc(C(=O)N4C5CNCC4C5)cc3)c(=O)c12` [Compound I-65, 6-(4-(3,6-diazabicyclo[3.1.1]heptane-6-carbonyl)benzyl)-2-amino-4-(butylamino)pyri do[4,3-d]pyrimidin-5(6H)-one]: 203 nM and 64 nM.
The matching figures for `CCC[C@@H](CC)Nc1nc(N)nc2ccn(Cc3ccc(CN4CCCC4)cc3)c(=O)c12` [Compound I-138, (R)-2-amino-4-(hexan-3-ylamino)-6-(4-(pyrrolidin-1-ylmethyl)benzyl)pyrido[4,3-d]pyrimidin-5(6H)-one]: 58 nM and 97 nM.
Turning to `CCCCNc1nc(N)nc2ccn(Cc3ccc(CN4CCCC4)cc3F)c(=O)c12` [Compound I-51, 2-amino-4-(butylamino)-6-(2-fluoro-4-(pyrrolidin-1-ylmethyl)benzyl)pyrido[4,3-d]pyrimidin-5(6H)-one], the EC50 at human TLR7 came out at 98 nM; at human TLR8, 88 nM.
The matching figures for `CCCCNc1nc(N)nc2ccn(Cc3ccc(C(=O)N4CCN(C(C)C)CC4)cc3)c(=O)c12` [Compound I-53, 2-amino-4-(butylamino)-6-(4-(4-isopropylpiperazine-1-carbonyl)benzyl)pyrido[4,3-d]pyrimidin-5(6H)-one]: 61 nM and 92 nM.
On to `CCC[C@@H](CO)Nc1nc(N)nc2ccn(Cc3ccc(CN4CCCC4)cc3C)c(=O)c12` [Compound I-169, (S)-2-amino-4-((1-hydroxypentan-2-yl)amino)-6-(2-methyl-4-(pyrrolidin-1-ylmethyl)benzyl)pyrido[4,3-d]pyrimidin-5(6H)-one], for which the EC50 at human TLR7 stood at 70 nM; on human TLR8, 20 nM.
For `CCC[C@@H](C)Nc1nc(N)nc2ccn(Cc3ccc(CNC)cc3OC)c(=O)c12` [Compound I-198, (R)-2-amino-6-(2-methoxy-4-((methylamino)methyl)benzyl)-4-(pentan-2-ylamino)pyrido[4,3-d]pyrimidin-5(6H)-one], the EC50 at human TLR7 was found to be 100 nM; on human TLR8, 5 nM.
In the case of `CCCCNc1nc(N)nc2ccn(Cc3ccc(CN4CC5(COC5)C4)cc3)c(=O)c12` [Compound I-52, 6-(4-((2-oxa-6-azaspiro[3.3]heptan-6-yl)methyl)benzyl)-2-amino-4-(butylamino)pyri do[4,3-d]pyrimidin-5(6H)-one], the values for the EC50 at human TLR7 and on human TLR8 were 83 nM and 56 nM, respectively.
The matching figures for `CCCCNc1nc(N)nc2ccn(Cc3ccc(CN(CCC)CCO)cc3)c(=O)c12` [Compound I-98, 2-amino-4-(butylamino)-6-(4-(((2-hydroxyethyl)(propyl)amino)methyl)benzyl)pyrido[4,3-d]pyrimidin-5(6H)-one]: 101 nM and 85 nM.
The matching figures for `CCCCNc1nc(N)nc2ccn(Cc3ccc(CCN(C)C)cc3)c(=O)c12` [Compound I-90, 2-amino-4-(butylamino)-6-(4-(2-(dimethylamino)ethyl)benzyl)pyrido[4,3-d]pyrimidin-5(6H)-one]: 68 nM and 47 nM.
With `CCC[C@@H](C)Nc1nc(N)nc2ccn(Cc3ccc(C(=O)N4CC5CC(C4)N5)cc3)c(=O)c12` [Compound I-151, 6-(4-(3,6-diazabicyclo[3.1.1]heptane-3-carbonyl)benzyl)-2-amino-4-(((R)-pentan-2-yl)amino)pyrido[4,3-d]pyrimidin-5(6H)-one], the EC50 came out at 80 nM at human TLR7 and 30 nM at human TLR8.
The corresponding values for `CCC[C@@H](C)Nc1nc(N)nc2ccn(Cc3ccc(C(=O)N4CCN(C)CC4)cc3OC)c(=O)c12` [Compound I-182, (R)-2-amino-6-(2-methoxy-4-(4-methylpiperazine-1-carbonyl)benzyl)-4-(pentan-2-ylamino)pyrido[4,3-d]pyrimidin-5(6H)-one] are 54 nM and 58 nM.
Take `CCCCNc1nc(N)nc2ccn(Cc3ccc(CN4CCCC4)cc3OC)c(=O)c12` [Compound I-2, 2-amino-4-(butylamino)-6-(2-methoxy-4-(pyrrolidin-1-ylmethyl)benzyl)pyrido[4,3-d]pyrimidin-5(6H)-one]: the 50% effective concentration (EC50) at human TLR7 amounted to 64 nM; on human TLR8, 107 nM.
The corresponding values for `CCC[C@@H](C)Nc1nc(N)nc2ccn(Cc3ccc(CN4CCN(CCN)CC4)cc3OC)c(=O)c12` [Compound I-213, (R)-2-amino-6-(4-((4-(2-aminoethyl)piperazin-1-yl)methyl)-2-methoxybenzyl)-4-(pentan-2-ylamino)pyrido[4,3-d]pyrimidin-5(6H)-one] are 100 nM and 9 nM.
The matching figures for `CCC[C@@H](C)Nc1nc(N)nc2ccn(Cc3ccc(CN(C)CCO)cc3)c(=O)c12` [Compound I-139, (R)-2-amino-6-(4-(((2-hydroxyethyl)(methyl)amino)methyl)benzyl)-4-(pentan-2-ylamino)pyrido[4,3-d]pyrimidin-5(6H)-one]: 30 nM and 20 nM.
The corresponding values for `CCC[C@@H](CO)Nc1nc(N)nc2ccn(Cc3ccc(CN4CCCC4)cc3)c(=O)c12` [Compound I-127, (S)-2-amino-4-((1-hydroxypentan-2-yl)amino)-6-(4-(pyrrolidin-1-ylmethyl)benzyl)pyrido[4,3-d]pyrimidin-5(6H)-one] are 44 nM and 3 nM.
For `CCC[C@@H](CO)Nc1nc(N)nc2ccn(Cc3ccc(CN4CCCC4)cc3Cl)c(=O)c12` [Compound I-168, (S)-2-amino-6-(2-chloro-4-(pyrrolidin-1-ylmethyl)benzyl)-4-((1-hydroxypentan-2-yl)amino)pyrido[4,3-d]pyrimidin-5(6H)-one], the EC50 came to 40 nM at human TLR7 and 10 nM on human TLR8.
